Assay results taken from article PMC12040169 (PLOS Biology, 2025).

Test: in vitro
Conditions: human, hela cells, % viability

Structure (SMILES)	viability at 28.5 h, 10 µM [%]	viability at 28.5 h, 10 µM (bulk resorufin, single well) [%]
Cc1ccc(NC(=O)C(=O)NCCCn2ccnc2)cc1C [CBK264157]	98	
CCc1nn(CC(=O)NC(C)(C)C)c(=O)c2cc3sccc3n12 [CBK284056]	73.8	
CCNc1ccn([C@H]2C[C@@H](O)[C@@H](CO)O2)c(=O)n1 [CBK201311]	95.2	
N#Cc1cccc(-n2cc(-c3ccc(Br)cc3F)nn2)c1 [CBK113143]	95.4	
CCCC(=O)NC(NC(=S)Nc1ccccc1Cl)C(Cl)(Cl)Cl (stereo not shown) [CBK261026]	106	
CCN(Cc1ccncc1)C(=O)NCc1c(Cl)cccc1Cl [CBK155144]	107	
Cc1n[nH]c(-c2ccccc2NS(=O)(=O)c2cnn(C(C)C)c2)n1 [CBK306377]	84.1	
COc1cc(Nc2cc(-c3ccc4c(c3)OCO4)ncn2)cc(OC)c1OC [CBK090704]	101	
O=C(Nc1ccc(N2CCN(Cc3ccccc3)CC2)cc1)c1cncc(Br)c1 [CBK267093]	85	
CS(=O)(=O)N1CCN(c2ccccc2NC(=O)COc2ccc(Cl)cc2)CC1 [CBK268854]	94.7	
Cc1ccc(C(C)C(=O)N2CCC(O)(c3ccccn3)CC2)cc1 (stereo not shown) [CBK283787]	86.7	
Cc1cccc(CN(CC(C)(C)CN)C(=O)Nc2ccccc2C(F)(F)F)n1 [CBK002409C]	105	
O=C(C[C@@H]1O[C@H](CNCc2cccc(Cl)c2)[C@@H](O)[C@H]1O)N1CCCC1 [CBK288914]	95	
CC(NC(=O)CCc1ccncc1)C1CC2CCC1C2 (stereo not shown) [CBK282090]	99.8	
Cc1nc(N2CCCCC2)ncc1C(=O)NCCSc1nncn1C [CBK306955]	81.1	
CCOC(=O)c1c(-c2ccc(-c3ccccc3)cc2)csc1NC(=O)c1ccccc1C(=O)O [CBK296096]	106	
COC(=O)CCc1ccc(S(=O)(=O)N2CCCN(Cc3ccc4c(c3)OCO4)CC2)cc1 [CBK063130]	106	
CN(C)CCN(C)C(=O)c1ccc(-c2cccc(Cl)c2Cl)nc1N(C)C [CBK106082]	94.1	
CC(C)(C)C(=O)NC1(C(F)(F)F)N=C(c2ccccc2)NC1=O (stereo not shown) [CBK267475]	88.7	
c1coc(-c2nc3cnccn3c2NC2CCCC2)c1 [CBK283678]	90.6	
CCOC(=O)C1CCN(S(=O)(=O)c2ccc(NC(=O)N3CCCC3)cc2)CC1 [CBK269823]	100	
O=C(c1ccco1)N1CCC2(CC1)OCc1cc(Cl)ccc1O2 [CBK061068]		94.4

Structure (SMILES)	viability at 28.5 h, 10 µM [%]	viability at 28.5 h, 10 µM (bulk resorufin, single well) [%]
CC(C)(C)c1cc(CN)c(C(=O)O)o1 [CBK266510C]	94.3	
COc1ccc2c(c1)C1(CC(=O)N(Cc3ccccc3)C1=O)C(=O)N2CCn1cnc2c1c(=O)n(C)c(=O)n2C (stereo not shown) [CBK075478]	93.5	
O=C(c1cccc(C(F)(F)F)c1)N1CCCCCC1 [CBK074291]	98.4	
O=C(O)CSc1cccc2cccnc12 [CBK126918]	95	
CNC(=O)c1cccc(NC(=O)C(C)N(C)Cc2cnc(C)s2)c1 (stereo not shown) [CBK305735]	81.5	
CCOC(=O)c1c(NC(=O)CSc2n[nH]c(N)n2)sc(C)c1C [CBK266412]	94.4	
O=C(O)COCC(=O)N[C@H]1CCN2C(=O)c3ccc(Cl)cc3NC(=O)[C@H]12 [CBK289342]	90	
CN(C)CCN(C)c1nc(-c2ccc3c(c2)OCO3)cn2ccnc12 [CBK066381]	110	
O=C(c1cccs1)N1CCCN(c2nccc(C(F)(F)F)n2)CC1 [CBK019390]	89.4	
O=C1NCCN1C1CCN(c2ncnc3ccccc23)CC1 [CBK304896]	83.1	
COc1ccc(CCNS(=O)(=O)N(C)C)cc1 [CBK264348]	93	
O=C1N=C(NC2C3CC4CC(C3)CC2C4)OC12CCCC2 (stereo not shown) [CBK113576]	94.2	
CC1CCN(C(=O)Cn2ncn3c(cc4ccsc43)c2=O)CC1 [CBK284190]	101	
CC(CCN(CCN)C(=O)N1CCC(CNS(C)(=O)=O)(c2ccccc2)CC1)c1ccccc1 (stereo not shown) [CBK002335C]	82.9	
CNC(=O)C(NC(=S)NC(=O)c1ccc(F)cc1)C(C)(C)C (stereo not shown) [CBK021945]	109	
Cc1c(C(=O)N2CCC(n3cncn3)CC2)sc2cccc(F)c12 [CBK305520]	103	
CC(=O)Nc1ccc(CNC(=O)CN2CCCC(c3ncc[nH]3)C2)cc1 (stereo not shown) [CBK307718]	96.5	
O=C(NC[C@H]1O[C@@H](CC(=O)N2CCN(c3ccccn3)CC2)[C@H](O)[C@@H]1O)c1ccco1 [CBK288923]	102	
CS(=O)(=O)c1cccc(-c2nnc(NC(=O)c3ccccc3)o2)c1 [CBK287726]	82.4	
CCNC(=O)CNc1cc(C#N)ccc1C(F)(F)F [CBK306432]	86.5	
N#CCCn1cc(C(=O)n2nnc3ccccc32)c(-c2cc3ccccc3o2)n1 [CBK268073]	103	
CC(C)c1ccc(/C=C/C(=O)N2CCN(C3CCN(C)CC3)CC2)cc1 [CBK149094]	105	

Structure (SMILES)	viability at 28.5 h, 10 µM [%]	viability at 28.5 h, 10 µM (bulk resorufin, single well) [%]
CSc1nc(C)cc(OCC(=O)Nc2ccc(Cl)cc2)n1 [CBK267525]	94.8	
Cc1cc(C)nc(N2CCC(CC(=O)N3CCN(C4CCCC4)CC3)CC2)n1 [CBK285957]	97.6	
CC(=O)c1cc(C#N)c(SCC(=O)O)nc1C [CBK270189]	95.8	
S=c1[nH]nc(-c2ccco2)n1-c1ccc(Cl)cc1 [CBK023586]	97.8	
C[C@H]1[C@@H]2[C@@H](O)C([C@H](C)C(=O)NCc3ccccn3)CC[C@@]2(C)CC[C@@H]1NC(=O)C1CC1 (stereo partly shown) [CBK289445]	97.2	
CC1CCC(N(Cc2nnc(C(C)C)o2)CC2CCCO2)CC1 (stereo not shown) [CBK305169]	89.7	
Cc1cc(C)c2nc(-c3ccccn3)cc(C(=O)Nc3ccc(S(=O)(=O)Nc4onc(C)c4C)cc3)c2c1 [CBK267775]	92.9	
COc1cccc(Nc2[nH]nnc2C(=O)Nc2cccc(C)c2C)c1 [CBK288028]	102	
COCCN(CCOC)c1ncc(C#N)cc1Cl [CBK306227]	92.6	
O=C(NC[C@H]1C[C@@H]2CC[N@]1C[C@@H]2CN1CCN(c2ccccn2)CC1)c1ccco1 [CBK288867]	107	
Cc1nc2ccc(C(=O)NC(C)Cc3cccs3)cc2[nH]1 (stereo not shown) [CBK282487]	86.8	
O=C(NCc1cccc2ccccc12)N1CCCC(CO)C1 (stereo not shown) [CBK156035]	112	
O=C1CC(c2cccs2)CC(=O)C1=CNCCN1CCNCC1 (stereo not shown) [CBK264785]	105	
O=[N+]([O-])c1cc(S(=O)(=O)n2ccc3ccccc32)ccc1N1CCNCC1 [CBK024593C]	91.2	
CC(Sc1ccccc1)C(=O)NCCN1CCOCC1 (stereo not shown) [CBK269332]	95.9	
CCOc1cc(OCC)cc(C(=O)N2CCC3(CC2)NC(=O)c2cc(I)ccc2O3)c1 [CBK166301]	94.1	
CCN1CCCCC1CNC(=O)Cn1nc(C)c(C)c1C (stereo not shown) [CBK282208]	105	
O=[N+]([O-])c1ccc(N2CCNCC2)cc1NCCO [CBK262851]	75.1	
COc1ccc(Cl)cc1NC(=O)Cn1nc(-c2ccccc2)ccc1=O [CBK270124]	85.1	
COC1(CNC(=O)c2cc3ccccc3[nH]2)CCSC1 (stereo not shown) [CBK304605]	97.9	
CCOC(=O)CC1SC(NS(=O)(=O)c2ccc(Br)cc2)=NC1=O (stereo not shown) [CBK014126]	93.5	
NS(=O)(=O)c1ccc(NC(=S)Nc2nn(Cc3ccc(Cl)c(Cl)c3)cc2Br)cc1 [CBK267082]	94.4	

Structure (SMILES)	viability at 28.5 h, 10 µM [%]	viability at 28.5 h, 10 µM (bulk resorufin, single well) [%]
CC(C)C(=O)N1CCCC1c1cc2n(n1)[C@@H](C(F)(F)F)C[C@@H](C)N2 (stereo partly shown) [CBK282966]	106	
O=C(c1ccccc1)N1C[C@@H](c2ccsc2)[C@@H]2CN(Cc3ccccc3Cl)CC[C@@H]21 [CBK285613]	101	
Cc1noc(C)c1NC(=O)c1cnccn1 [CBK200390]	89.9	
COC(=O)Cn1cc(CN2CC3CCCN3C[C@H]2C)c2ccccc21 (stereo partly shown) [CBK285436]	92.2	
CCc1nnc(NS(=O)(=O)c2ccc(NC(=S)Nc3ccc(F)cc3)cc2)s1 [CBK050037]	89.7	
Cc1ccc(N(Cc2ccco2)C(=O)c2cccc(S(=O)(=O)N(C)C)c2)cc1 [CBK267578]	91.6	
Cc1ccc(C)n1-c1ccc(O)c(C(=O)O)c1 [CBK116381]	94.2	
COc1ccc(CCNC(=O)N2CCCCC2CO)cc1 (stereo not shown) [CBK156188]	92.8	
O=c1[nH]c2ncc(-c3cncc4ccccc34)nc2n1C1CCC(O)CC1 (stereo not shown) [CBK065013]	108	
COc1ccc(S(=O)(=O)Nc2ccsc2C(=O)N2CCN(C)CC2)cc1OC [CBK004627]	95.3	
COc1ccc(S(=O)(=O)Nc2nccnc2-c2cccs2)cc1OC [CBK050774]	104	
Oc1cc(C(F)(F)F)nc(NCc2cccc3ccccc23)n1 [CBK003716]	92.7	
CCCS(=O)(=O)N1CCCC(Cc2ccccc2C)(C(=O)OCC)C1 (stereo not shown) [CBK307502]	84.9	
CC(C)c1ccc(C(C)NC(=O)Cn2cc(C(=O)NC3CCCC3)ccc2=O)cc1 (stereo not shown) [CBK286121]	103	
O=C(c1ccc(-c2nccnc2NCCc2c[nH]c3ccccc23)cc1)N1CCOCC1 [CBK036891]	95.6	
COc1cccc(NC(=O)NCc2ccc(F)cc2)c1 [CBK115590]	90.2	
CC(C)C(=O)N[C@@H](C)Cn1c(C(F)(F)F)cc2cccnc21 [CBK283231]	95.6	
COc1ccc2nc(C(=O)O)sc2c1 [CBK026523N]	88.4	
CN(CC(=O)N1CCN(Cc2ccccc2)CC1)S(=O)(=O)c1ccc2ccccc2c1 [CBK267117]	90.1	
CC(C)(C)OC(=O)NCc1ccc(CNCc2cccc(Cl)c2)cc1 [CBK056704]	108	
CCOC(=O)c1c(NC(=O)CSc2nc[nH]n2)sc2c1CCC2 [CBK267225]	94.5	
Cc1ccccc1Nc1nc(N)nc(CN2CCCC(C(F)(F)F)C2)n1 (stereo not shown) [CBK305073]	105	
